Laboratory results published in patent publication US20220193010A1, “METHODS OF USING DIPIVEFRIN” (INSIGNIS THERAPEUTICS, INC., priority 2017, published 2022).
Where a name gives a salt, the structure may show the parent alone.

Legend:
[1] = beagle dogs N=3, IM 0.3 mg, mean ± SEM
Description: Four days prior to study initiation, 1 mL of whole blood was collected from four (n=4) non-naive male Beagle dogs, aged 1.5-6.5 years and ranging from 9.8 to 10.8 kilograms in weight, into 4 chilled tubes containing K2EDTA. The blood was processed to plasma and plasma cholinesterase activity was assayed according to the Ellman method using acetylthiocholine iodide as the substrate (Ellman, G. L. et al Biochemical Pharmacology, 1961, volume 7, page 88-95). Based on the plasma cholinesterase activity assay results, the first three dogs with highest plasma cholinesterase activity were selected for the PK study.
The dogs were housed one per cage and identified by ear tags and cage labels. The animals were healthy at the start of the study. Primary enclosures were as specified in the USDA Animal Welfare Act (9 CFR, Parts 1, 2, and 3) and as described in the Guide for Care and Use of Laboratory Animals (ILAR publication, 2011, National Academy Press). Animals were fasted for a minimum of 12 hours prior to dosing and returned 4 hours post dose; Water was supplied ad libitum to the animals.
Dosing occurred at 0 hours on the appropriate day in accordance with the Study Design table (Table 11). […] The intramuscular dose was administered via 25 gauge needle and syringe into the lateral aspect of the left or right thigh. […]

[2] = human, in vivo, im; cited from earlier work
in vivo = type: in vivo, New Zealand White Rabbits
[3] = Pharmacokinetic profile after single oral administration in mice (plasma epinephrine by LC/MS/MS); type: in vivo, C57BL6 mice; details: oral (also IM and IP) administration
Description: Male C57BL6 mice, approximately 14 weeks of age and weighing between 28 and 31 g, were placed in an anesthesia chamber and transiently anesthetized with isoflurane (Henry Schein). After approximately 5 minutes and in the absence of reflex (toe pinch), mice were bled via retro-orbital sinus at t=0 (pre-dose). […] Following oral administration, mice were then retro-orbital bled under anesthesia at the following time points post-dose: 15, 30, 1 h, 2 h, 4 h, and 6 h. About 45 μl of the diluted plasma was recovered and plated. The plasma samples were analyzed for epinephrine using a validated LC/MS/MS method (Keystone Bioanalytics, North Wales Pa.).

[4] = tested on: influenza A/California/04/2009 (H1N1pdm) virus; test: Influenza A (H1N1pdm) virus infection in mice, single oral dose; type: in vivo, C57BL/6J mice; details: for body weight loss during infection vs placebo: single p.o. dose 8.48 mg/kg 24 hours after infection, 6-day observation, p<0.05 days 5 and 6; for body weight loss during infection vs placebo / influenza virus titers in lung tissues vs placebo: 8.48 mg/kg; for influenza virus titers in lung tissues vs placebo: day 3 or 6 p.i.
[5] = tested on: methicillin-resistant Staphylococcus aureus (MRSA) NRS71-Sanger 252; test: Peritonitis-sepsis model of MRSA infection; type: in vivo, C57BL/6J mice
Description: Two (2) groups of C57BL/6J 6 to 8 week old female mice (ca 20 g body weight) with 10 mice/group were injected IP with 2×10^8 CFU/mL of methicillin-resistant Staphylococcus aureus (MRSA) NRS71-Sanger 252 in a volume of 200 μL. The treatment group was dosed with dipivefrin 15.3 mg/kg (freebase) by oral gavage starting at t=−5 days relative to bacterial inoculation. Dosing occurred once daily up to 7 days post bacterial inoculation. Body weights were measured once per day on days 0 to 7 and the experimental endpoint was survival at 7 days. Animals falling below 20% of original weight post-infection was euthanized. Four hours (4 hours) post infection, blood was drawn from 4 animals in each group and bacterial load was determined through a standard plating assay. Each blood sample was diluted by serial log dilutions and 10 dilutions (100 to 10-s) was plated in duplicate on TSA with 5% sheep's blood. The plates were incubated for 24 hours at 37° C. at which time formed colonies was enumerated and CFU/mL was determined. One mouse in the vehicle group was found dead the next day following infection and no subsequent death occurred up to 7 days post infection. No mouse died in the treatment group up to 7 days post infection.

[6] = tested on: B16-F10 syngeneic melanoma tumors; test: Subcutaneous B16-F10 syngeneic melanoma tumor model, oral dipivefrin as single agent; type: in vivo, C57BL/6J mice; details: for MST (median survival time): vehicle 17.0
Excerpt: The treatments were started 7 days before tumor inoculation per study design (day −7).
The endpoints of the study included the following: tumor growth inhibition (TGJ); reduction in median tumor volume on a given day; survival of all animals will be followed and Median Survival Time (MST) and increase in life-span (ILS) will be calculated for each group.
The percent tumor growth inhibition (TGJ %) is an indication of antitumor effectiveness, and is expressed as: TGJ (%)=100× (1-TIC), in which T and C are the mean tumor volume of the treated and control groups, respectively, on a given day.
The endpoint for each mouse is either a tumor volume >3000 mm^3 or the animal is in extreme discomfort (such as pain, seizure, difficulty breathing, etc.). The increase in life-span (ILS) is calculated as follows: ILS (%)=100× [(Median Survival Time of drug treated group/Median Survival Time of vehicle group)−1] (%)
Female C57BL/6J mice (Shanghai Lingchang Bio-Technology Co. Ltd (LC, Shanghai, China; Animal Certificate No.: 2013001825675) were used in the study. At inoculation, mice were 7-8 weeks old with a body weight of 16.2-18.6 g. The mice were kept in an Individually Ventilated Cage (IVC) system at constant temperature (22˜24° C.) and humidity (60-70%) with 5 animals in each cage. Animals had free access during the entire study period to a standard mouse diet (a Co^60 irradiation-sterilized dry granule food) and water.
The test articles used in the study were dipivefrin hydrochloride (1.9 mg/ml freebase, pre-formulated dosing solution) or the vehicle (purified water containing 0.005% wt of benzalkonium chloride as preservative). Each was stored at 4° C. The B16-F10 tumor cells were maintained in vitro as a monolayer culture in DMEM medium supplemented with 10% fetal bovine serum at 37° C. in an atmosphere of 5% CO2 in air. The tumor cells were routinely subcultured twice per week. The cells growing in an exponential growth phase were harvested and counted for tumor inoculation.
Each mouse was inoculated subcutaneously at the right flank region with 2×10^5 B16F10 tumor cells in 0.1 ml of PBS for tumor development. The treatments were started 7 days prior to the inoculation. The test article was administered to the tumor-bearing mice according to the predetermined regimen as shown in the Study Design Table 3. The date of tumor cell inoculation was denoted as day 0.
First grouping: On day 7, all 30 animals were weighed and the body weight was used as numeric parameter to randomize selected animals into two groups in an effort to minimize systematic error.
Second grouping: On day 8, all 20 animals in group-1 were randomized into two groups (1a and 1b) based on tumor volume. Dose administrations were performed as shown Table 5.
After tumor cell inoculation, animals were checked daily for morbidity and mortality. At the time of routine monitoring, the animals were checked for any effects of tumor growth and treatments on normal behavior such as mobility, food and water consumption, body weight gain/loss (body weights were measured twice or thrice per week), eye/hair matting and any other abnormal effect. Death and observed clinical signs were recorded on the basis of the numbers of animals within each subset.
Tumor volumes were measured twice or thrice per week in two dimensions using a caliper, with the volume in mm^3 estimated using the formula: V=0.5 a×b^2 where a and b are the long and short perpendicular diameters of the tumor, respectively. The procedures of dosing as well as tumor and body weight measurement were conducted in a Laminar Flow Cabinet.
On day 17, mice which tumor volumes exceeded 3000 mm^3 were euthanized and the whole study was terminated on day 19. Additionally, mouse #15 in group 1-b was dead on day 13 due to an operation error, while mouse #7 in group 1-a was found dead on day 18 due to tumor ulceration. […]

[7] = for clinical observations after IM injection: dose equivalent to 0.3 mg epinephrine, 3 mice per group

## CNC[C@H](O)c1ccc(O)c(O)c1 [Epinephrine]
[1]
  AUClast (plasma epinephrine): 147.37 ± 39.41 ng·min/mL
[2]
  Tmax: 1.12 ± 0.717 h
In vivo; female, New Zealand White, rabbit, in vivo, im, 0.3 mg
  AUC(0-t): 0.0196 µg·h/mL
In vivo; rabbits, IM 0.3 mg, mean±SEM
  Cmax (plasma epinephrine): 0.05023 ± 0.01495 µg/mL

## CNCC(O)c1ccc(OC(=O)C(C)(C)C)c(OC(=O)C(C)(C)C)c1 (stereo not drawn) [dipivefrin, 4-(1-hydroxy-2-(methylamino)ethyl)-1,2-phenylene bis(2,2-dimethylpropanoate)]
[3]
  absorption and biotransformation into epinephrine: absorbed and biotransformed into epinephrine rapidly
[4]
  body weight loss during infection vs placebo: losing less weight
[4]; single p.o. dose 8.48 mg/kg
  influenza virus titers in lung tissues vs placebo: did not differ significantly
[4]; single p.o. dose 8.48 mg/kg, lungs day 3 and day 6 p.i.
  visual lung hemorrhage score (scale 0 to 4): 0-3
[4]; single p.o. dose 8.48 mg/kg, p<0.05
  lung virus titers day 6 p.i. vs day 3 p.i.: lower virus titers in lung tissues on day 6 p.i. than on day 3 p.i
[5]; 15.3 mg/kg (freebase) oral gavage once daily from day -5 to day 7, 10 mice
  survival at 7 days post infection: No mouse died
[5]; 4 hours post infection, 4 animals per group, p<0.05
  blood bacterial counts: significantly higher for the vehicle treated group than the drug treated group
[6]; 14 days post B16F10 inoculation, 15.3 mg/kg p.o. QD, vehicle 1060, p<0.05
  median tumor volume: 827 mm^3
[6]; Group-1b vs vehicle group 1a, p=0.038
  ILS (increase in life-span): 12%
[6]; Group-1b, 15.3 mg/kg p.o. from day 8
  MST (median survival time): 19.0 days
[6]; Group-2, 15.3 mg/kg p.o. from day -7
  MST (median survival time): 18.0 days
[6]; Group-2 vs vehicle, p=0.175
  ILS (increase in life-span): 6%
[6]; day 19, group 1b, 15.3 mg/kg p.o. QD from day 8 (established tumor), vehicle 3668.0±311.9
  mean tumor volume: 2997.2±341.6 mm^3
[6]; day 19, group 1b, dosing from day 8
  reduction in mean tumor volume compared to vehicle: about 18%

## CNC[C@H](O)c1ccc(O)c(O)c1 [epinephrine bitartrate]
[7]; IM epinephrine bitartrate 0.546 mg (0.3 mg freebase), approximately 20 minutes post administration
  mice found dead: Two out of three
[7]; mice
  clinical observations after IM injection: cold and lethargic approximately 5 minutes after IM injection

## CNCC(O)c1ccc(OC(=O)C(C)(C)C)c(OC(=O)C(C)(C)C)c1 (stereo not drawn) [Dipivefrin HCl, Dipivefrin hydrochloride]
[4]; hydrochloride
  body weight loss during infection vs placebo: less weight loss compared to placebos
[4]; single p.o. dose 8.48 mg/kg, hydrochloride
  influenza virus titers in lung tissues vs placebo: slightly lower in treated mice compared to placebos, the difference was not statistically significant
[6]; 15.3 mg/kg (freebase) p.o. daily, study period
  drug related deaths: no drug related deaths were observed
[6]; 15.3 mg/kg (freebase) p.o. daily, tumor-bearing mice
  effect on body weight: no effect on body weight
[6]; 5 days post B16F10 inoculation, 15.3 mg/kg p.o. QD from day -7, vehicle 16.4±2.5, p<0.01
  mean tumor volume: 6.2±1.1 mm^3
[7]; mice, IM 0.636 mg
  absorption and conversion into epinephrine: absorbed rapidly upon IM injection and quickly converted into epinephrine
[7]; mice
  clinical observations after IM injection: appeared to be normal throughout the study and showed no signs of distress or illness
